The record followed here is patent US11800867B2, “Methods of repelling biting arthropods, reducing pathogen spread and treating arthropod infestation” (priority 2016, dated 2023).

Assay type in all cases: in vivo
Series [1] has as its system mosquitoes (Aedes aegypti and Culex). The series is described as follows: Treated filter paper knockdown (KD) and mortality trial (Example 4), statements on both mosquito species. The protocol:
(§1) A laboratory trial was conducted to assess the efficacy of nootkatone applied to filter paper against aphids (Schizaphis gramium), dust mites (Dermatophagoides sp.), termites (Reticulitermes flavipes), deer ticks (Ixodes scapularis), biting midges (Culicoides sp.), fire ants (Solenopsis invicta), and mosquitoes (Aedes aegypti and Culex), in terms of knockdown (KD) and mortality. One concentration (1% in ethanol) of nootkatone was assessed for most species, but three concentrations (0.25%, 0.5%, and 1% in ethanol) were assessed for mosquitoes. A negative control group, consisting of filter paper treated with ethanol, was also assessed for comparison purposes for each species.
(§2) Test systems were introduced to treated filter paper, allowed to dry, and then introduced into treatment chamber, where treated arthropods were monitored at intervals up to 72 hours. If 100% mortality was obtained prior to 72 hours, the individual study was halted.
Midges and mosquitoes—5 replicates of 10 insects per treatment were tested. Inverted 10 ounce (295 ml) clear plastic cups with a 0.5 inch (1.27 cm) hole burned into the center of the bottom, and with the sides coated with Fluon® was used at the treatment containers. The bottoms of the containers consisted of Petri dish lids 3.54 inches (9.0 cm) in diameter lined with a treated filter paper circle the same diameter. The cup was placed over the filter paper in the lid and both were secured in place using 2 rubber bands. The insects were introduced through the hole in the cup, and a plastic disc was placed over the opening to prevent escapes.
(§3) Readings were discontinued if treated mortality reaches […], or control mortality exceeds 20%.

The test system of series [2] is female Culex quinquefasciatus mosquitoes. The series is described as follows: In vitro membrane feeder repellency assay, probing of treated collagen membranes (Example 2). As to conditions: for Percent repellency: 25 μL on collagen membrane, twenty minutes, average ± SE, n = 5. An excerpt: (§4) A laboratory trial was required to evaluate the repellency of 1% Nootkatone against female Aedes aegypti, Culex quinquefasciatus, and Anopheles quadrimaculatus mosquitoes using an in vitro method.
(§5) Female adult laboratory reared Aedes aegypti, Culex quinquefasciatus, and Anopheles quadrimaculatus mosquitoes (susceptible) were obtained from Benzon Research in Carlisle, Pa. 250 mosquitoes were used per replicate (5 replicates per test, per species). Adult mosquitoes were 3-8 days old.
(§6) Nootkatone was diluted in ethanol and acetone (note that Nootkatone diluted in acetone was not tested against An. quadrimaculatus). A positive control consisting of 20% DEET in ethanol was prepared using stock solutions. Negative controls consisted of no treatment, and ethanol-only treatment.
(§7) The treatments were applied directly to prepared collagen membranes by pipetting 25 μL of the appropriate substance onto a membrane and spreading it evenly with the tip of the pipette.
(§8) Exposure container. A 30.5 cm×30.5 cm×30.5 cm rigid plastic frame supported by four, 4 cm high legs, with a sleeved entry on one side and a sliding door on the bottom.
(§9) Membrane feeder. Five wells (3 cm in diameter×8 mm in depth) in line on a hollow plastic block (6 cm wide×22 cm long×3 cm deep), which fits through the sliding door in the bottom of the exposure container. Hoses attached to each side of the block circulate heated water that is pumped from a water bath. The sliding door in the bottom of the exposure container covers and uncovers the wells in the membrane feeder, allowing mosquitoes to access the wells.
(§10) Test set-up. The membrane feeder was connected to a heated water bath, and warm water passed through the feeder via a circulating pump so that the wells were warmed to 89-95° F. Seventy-two (72) mg of ATP (disodium salt) were added to 26 mL of warmed citrated bovine blood, which was poured into the wells until they were completely full.
(§11) The collagen membranes were placed on vacuum greased wax paper for treatment. They were then treated as described above and left for five minutes to dry. After they dried, the membranes were placed over each of the wells (using vacuum grease as an adhesive), completely covering the blood.
(§12) Exposure to mosquitoes. The mosquitoes were released into the exposure container just prior to exposure to the membranes. The exposure container was then placed on the membrane feeder and the sliding door opened, allowing the mosquitoes to access the wells. The number of mosquitoes probing each membrane was recorded every two minutes for twenty minutes.
(§13) The above procedures were repeated until five replicates were completed. A new batch of 250 female mosquitoes and fresh blood were used for each replicate, and the wells were cleaned in between replicates. The position of the treatments was rotated for each replicate, so that each treatment was tested on each of the five wells.
(§14) Percent repellency was calculated for each replicate using the total number of probes with the following formula:
(§15) [formula] • where C=the total number of probes on the untreated well • and T=the total number of probes on the treated well
(§16) Average percent repellency and standard error were then calculated across all five replicates. Shapiro-Wilks tests were conducted to determine the normality of the data, based on total number of probes per replicate. Depending on normality, student t-tests (with concurrent F-tests for variance) or Mann-Whitney tests were then used to determine significance between the treatments.

Series [3] concerns female Anopheles quadrimaculatus mosquitoes. Described as above. Particulars: for Percent repellency: 1% Nootkatone in ethanol, 25 μL on collagen membrane, twenty minutes, average ± SE, n = 5.
Text: as §4, §5, §6, §7, §8, §9, §10, §11, §12, §13, §14, §15, §16

Series [4] concerns female Aedes aegypti mosquitoes. Described as above. Particulars: for Percent repellency: 25 μL on collagen membrane, twenty minutes, average ± SE, n = 5.
Text: as §4, §5, §6, §7, §8, §9, §10, §11, §12, §13, §14, §15, §16

The test system of series [5] is aphids (Schizaphis gramium). Nature of the series: Treated filter paper knockdown (KD) and mortality trial (Example 4). Particulars: Nootkatone 1% in ethanol on filter paper. The method, then:
as §1, §2, §3

[6] abbreviates: 1% Nootkatone diluted in ethanol and in acetone.

SMILES strings stand for the structures. Where “and” joins values, the source holds several entries; their conditions need not be identical. Equal entries are not always repeated.

Take `C=C(C)[C@@H]1CCC2=CC(=O)C[C@@H](C)[C@]2(C)C1` [Nootkatone, nootkatone]: the Mortality in mosquitoes result in series [1] (Nootkatone 0.25% in ethanol on filter paper, the lowest tested concentration) is “less than 80%”. The “Time required for greater than 90% killing” value in series [1] (Nootkatone 1% in ethanol on filter paper) was 24 h; in series [5] it was 30 min. Moreover, in series [1] (Nootkatone 1% in ethanol on filter paper, by 8 hours post treatment), the “Affected (knockdown+mortality) mosquitoes in both species” value is “at least 80%”. Further, in series [1] (Nootkatone at 1% concentration in ethanol on filter paper, both mosquito species), the “Mortality in mosquitoes during the experimental duration” value is 94-100%. For the same compound, the “Mortality in both mosquito species” value in series [1] (nootkatone 0.5% in ethanol on filter paper, by 72 hours post treatment) is 82-95%. In addition, the “Protection compared with untreated or ethanol alone (significance, α=0.05)” value in series [2] (setting [6]) and in series [4] (setting [6]) was “significantly higher protection” in each case. The “Protection level compared with 20% DEET (significance, α=0.05)” value in series [2] (setting [6]) and in series [4] (setting [6]) was “not significantly different from 20% DEET” in each case. For the same compound, the Percent repellency in series [2] (1% Nootkatone in acetone) is on record as 80.1 ± 10.0%; in series [2] (1% Nootkatone in ethanol), 83.8 ± 5.5%; in series [3], 90.3%; in series [3] (listed as Nootkatone (ethanol)) it was 90.3 ± 5.3%; in series [4] (1% Nootkatone in acetone) it was 91.5 ± 2.1%; in series [4] (1% Nootkatone in ethanol), 92.0 ± 3.4%. The “Protection compared with ethanol alone (significance)” value in series [3] (1% nootkatone diluted in ethanol) was “not found to be significantly different from ethanol alone”. Besides, the “Means Affected” value in series [5] (30 minutes post introduction) is given as 100.0%. Also, the “Means Dead” value in series [5] (30 minutes post introduction) was 100% and 94.0%. Further, in series [5] (30 minutes post introduction), the “Means KD” value was found to be 6.0%.
